This note sets out measurements from PMC11210812, “Assessment of polymeric mucin–drug interactions” (PLOS ONE, 2024).

Common to all, as to assay: mucin fluorescence quenching, Lineweaver-Burk fit
What all share (type): binding

One test concerns the target T1, MUC5AC (Homo sapiens, UniProt P98088).
T1 construct: native secreted polymeric gel-forming mucin, O-glycosylated, disulfide-linked; purified from human cell culture by two-step CsCl density gradient
As to conditions: for Kd (μM) / MUC5AC: PBS pH 7.4, 37 °C, unreliable (Kd above highest concentration tested). The text has this:
mucin fluorescence quenching, Lineweaver-Burk fit on MUC5AC

The target in another test is T2, MUC5B (Homo sapiens, UniProt Q9HC84).
T2 construct: native secreted polymeric gel-forming mucin, O-glycosylated, disulfide-linked; purified from human cell culture by two-step CsCl density gradient
As to conditions: for Kd (μM) / MUC5B: PBS pH 7.4, 37 °C, unreliable (Kd above highest concentration tested). The text has this:
mucin fluorescence quenching, Lineweaver-Burk fit on MUC5B

The target of a further test is T3, MUC2 (Homo sapiens, UniProt Q02817).
T3 construct: native secreted polymeric gel-forming mucin, O-glycosylated, disulfide-linked; purified from human cell culture by two-step CsCl density gradient
As to conditions: for Kd (μM) / MUC2: PBS pH 7.4, 37 °C, unreliable (Kd above highest concentration tested). The text has this: mucin fluorescence quenching, Lineweaver-Burk fit on MUC2

Turning to `O=c1[nH]cc(F)c(=O)[nH]1` [5-Fluorouracil], the Kd at MUC5AC was 124 ± 1.5 µM; on MUC5B, 143 ± 17 µM; on MUC2, 136 ± 12.1 µM.
`Cc1cc(=O)n(-c2ccccc2)n1C` [Antipyrine]: the “Kd (μM) / MUC5AC” value at MUC5AC (drug 0-200 μM) was 302.0 ± 6.7 µM. At MUC5B (drug 0-200 μM), the “Kd (μM) / MUC5B” value turned out to be 386.0 ± 49.3 µM. Further, the “Kd (μM) / MUC2” value at MUC2 (drug 0-200 μM) was 393.1 ± 26.2 µM.
For `COC1=CC(=O)C[C@@H](C)[C@]12Oc1c(Cl)c(OC)cc(OC)c1C2=O` [Griseofulvin], the “Kd (μM) / MUC5AC” value on MUC5AC (drug 0-20 μM) was found to be 25.4 ± 1.6 µM. Besides, the “Kd (μM) / MUC5B” value at MUC5B (drug 0-20 μM) amounted to 29.9 ± 5.0 µM. Moreover, the “Kd (μM) / MUC2” value on MUC2 (drug 0-20 μM) was found to be 45.3 ± 9.6 µM.
Turning to `CC(=O)O[C@H]1C(=O)[C@@]2(C)[C@H]([C@H](OC(=O)c3ccccc3)[C@]3(O)C[C@H](OC(=O)[C@H](O)[C@@H](NC(=O)c4ccccc4)c4ccccc4)C(C)=C1C3(C)C)[C@]1(OC(C)=O)CO[C@@H]1C[C@@H]2O` [Paclitaxel], the Kd on MUC5AC amounted to 87.6 ± 7 µM; at MUC2 it was 163 ± 39.1 µM. The “Kd (μM) / MUC5B” value at MUC5B (drug 0-200 μM) amounted to 288.0 ± 24.9 µM.
As for `CO[C@H]1/C=C/O[C@@]2(C)Oc3c(C)c(O)c4c(O)c(c(/C=N/N5CCN(C)CC5)c(O)c4c3C2=O)NC(=O)/C(C)=C\C=C\[C@H](C)[C@H](O)[C@@H](C)[C@@H](O)[C@@H](C)[C@H](OC(C)=O)[C@@H]1C` [Rifampicin], the “Kd (μM) / MUC5AC” value at MUC5AC (drug 0-10 μM) was determined as 15.0 ± 1.5 µM. Besides, the “Kd (μM) / MUC5B” value at MUC5B (drug 0-10 μM) is 44.5 ± 7.1 µM. The “Kd (μM) / MUC2” value at MUC2 (drug 0-10 μM) is 49.7 ± 6.2 µM.
In the case of `Cn1c(=O)c2[nH]cnc2n(C)c1=O` [Theophylline], the results for the Kd on MUC5AC and at MUC5B were 185 ± 5.6 µM and 189 ± 7.2 µM, respectively. Further, the “Kd (μM) / MUC2” value on MUC2 (drug 0-200 μM) was 390.2 ± 46.5 µM.
